Experiments:
rgRSV224 virus = assay: Antiviral activity: rgRSV224 (GFP) replication in HeLa cells; format: cell-based, respiratory syncytial virus (RSV); details: human respiratory syncytial virus, HeLa, 72 h, read-out: RSV HELA EC50 (μM), rgRSV224 virus (MOI=1), HeLa cells, GFP expression three days post-virus exposure
in vitro = details: human, TOX HELA CC50 (μM)
Description: Black 384-well clear-bottom microtiter plates (Corning, Amsterdam, The Netherlands) were filled via acoustic drop ejection using the echo liquid handler (Labcyte, Sunnyvale, Calif.). 200 nL of compound stock solutions (100% DMSO) were transferred to the assay plates. 9 serial 4-fold dilutions of compound were made, creating per quadrant the same compound concentration. The assay was initiated by adding 10 μL of culture medium to each well (RPMI medium without phenol red, 10% FBS-heat inactivated, 0.04% gentamycin (50 mg/mL). All addition steps are done by using a multidrop dispenser (Thermo Scientific, Erembodegem, Belgium). Next, rgRSV224 virus (MOI=1) diluted in culture medium was added to the plates. rgRSV224 virus is an engineered virus that includes an additional GFP gene (Hallak L K, Spillmann D, Collins P L, Peeples M E. Glycosaminoglycan sulfation requirements for respiratory syncytial virus infection; Journal of virology (2000), 74(22), 10508-13) and was in-licensed from the NIH (Bethesda, Md., USA). Finally, 20 μL of a HeLa cell suspension (3,000 cells/well) were plated. Medium, virus- and mock-infected controls were included in each test. The wells contain 0.05% DMSO per volume. Cells were incubated at 37° C. in a 5% CO2 atmosphere. Three days post-virus exposure, viral replication was quantified by measuring GFP expression in the cells by an in house developed MSM laser microscope (Tibotec, Beerse, Belgium). The EC50 was defined as the 50% inhibitory concentration for GFP expression. In parallel, compounds were incubated for three days in a set of white 384-well microtiter plates (Corning) and the cytotoxicity of compounds in HeLa cells was determined by measuring the ATP content of the cells using the ATPlite kit (Perkin Elmer, Zaventem, Belgium) according to the manufacturer's instructions. The CC50 was defined as the 50% concentration for cytotoxicity.

Row | Structure (SMILES) | EC50 (rgRSV224 virus) [µM] | CC50 at 3 days (in vitro) [µM]
1 | C[C@@H]1c2ccccc2CCN1C(=O)c1cc(C2CC2)n2nc(-c3ccc(N4C[C@@H](O)[C@@H](F)C4)cc3F)cc2n1 (relative stereo) [Compound 107, (7-cyclopropyl-2-(2-fluoro-4-(cis-3-fluoro-4-hydroxypyrrolidin-1-yl)phenyl)pyrazolo[1,5-a]pyrimidin-5-yl)((R)-1-methyl-3,4-dihydroisoquinolin-2(1H)-yl)methanone] | 0.017 | 21.2
2 | C[C@@H]1c2ccccc2CCN1C(=O)c1cc(C2CC2)n2nc(-c3ccc(N4CC[C@](C)(CC(N)=O)C4)cc3F)cc2n1 (single isomer, unassigned) [Compound 23, 2-[(3*R)-1-(4-{7-Cyclopropyl-5-[(1R)-1-methyl-1,2,3,4-tetrahydroisoquinoline-2-carbonyl]pyrazolo[1,5-a]pyrimidin-2-yl}-3-fluorophenyl)-3-methylpyrrolidin-3-yl]acetamide] | 0.032 | 30.3
3 | C[C@@H]1c2ccccc2CCN1C(=O)c1cc(C2CC2)n2nc(-c3ccc(N4CC[C@@](C)(CC(N)=O)C4)cc3F)cc2n1 (single isomer, unassigned) [Compound 24, 2-[(3*S)-1-(4-{7-Cyclopropyl-5-[(1R)-1-methyl-1,2,3,4-tetrahydroisoquinoline-2-carbonyl]pyrazolo[1,5-a]pyrimidin-2-yl}-3-fluorophenyl)-3-methylpyrrolidin-3-yl]acetamide] | 0.03 | 26.4
4 | C[C@@H]1c2ccsc2CCN1C(=O)c1cc(C2CC2)n2nc(-c3ccc(N4CC[C@](C)(CC(N)=O)C4)cc3F)cc2n1 (single isomer, unassigned) [Compound 25, 2-[(3*R)-1-(4-{7-Cyclopropyl-5-[(4*R)-4-methyl-4,5,6,7-tetrahydro-thieno[3,2-c]pyridine-5-carbonyl]pyrazolo[1,5-a]pyrimidin-2-yl}-3-fluorophenyl)-3-methylpyrrolidin-3-yl]acetamide] | 0.023 | 29.6
5 | C[C@@H]1c2ccsc2CCN1C(=O)c1cc(C2CC2)n2nc(-c3ccc(N4CC[C@@](C)(CC(N)=O)C4)cc3F)cc2n1 (single isomer, unassigned) [Compound 26, 2-[(3*S)-1-(4-{7-Cyclopropyl-5-[(4*R)-4-methyl-4,5,6,7-tetrahydro-thieno[3,2-c]pyridine-5-carbonyl]pyrazolo[1,5-a]pyrimidin-2-yl}-3-fluorophenyl)-3-methylpyrrolidin-3-yl]acetamide] | 0.02 | 29.6
6 | C[C@@H]1c2ccccc2CCN1C(=O)c1cc(C2CC2)n2nc(-c3ccc(N4CC[C@H](C(C)(C)C(N)=O)C4)cc3F)cc2n1 (single isomer, unassigned) [Compound 27, 2-[(3*R)-1-(4-{7-Cyclopropyl-5-[(1R)-1-methyl-1,2,3,4-tetrahydroisoquinoline-2-carbonyl]pyrazolo[1,5-a]pyrimidin-2-yl}-3-fluorophenyl)pyrrolidin-3-yl]-2-methylpropanamide] | 0.089 | 34.4
7 | C[C@@H]1c2ccccc2CCN1C(=O)c1cc(C2CC2)n2nc(-c3ccc(N4CC[C@@H](C(C)(C)C(N)=O)C4)cc3F)cc2n1 (single isomer, unassigned) [Compound 28, 2-[(3*S)-1-(4-{7-Cyclopropyl-5-[(1R)-1-methyl-1,2,3,4-tetrahydroisoquinoline-2-carbonyl]pyrazolo[1,5-a]pyrimidin-2-yl}-3-fluorophenyl)pyrrolidin-3-yl]-2-methylpropanamide] | 0.072 | 32.2
8 | C[C@@H]1c2ccsc2CCN1C(=O)c1cc(C2CC2)n2nc(-c3ccc(N4CC[C@H](C(C)(C)C(N)=O)C4)cc3F)cc2n1 (single isomer, unassigned) [Compound 29, 2-[(3*R)-1-(4-{7-Cyclopropyl-5-[(4*R)-4-methyl-4,5,6,7-tetrahydro-thieno[3,2-c]pyridine-5-carbonyl]pyrazolo[1,5-a]pyrimidin-2-yl}-3-fluorophenyl)pyrrolidin-3-yl]-2-methyl-propanamide] | 0.045 | 43.7
9 | C[C@@H]1c2ccsc2CCN1C(=O)c1cc(C2CC2)n2nc(-c3ccc(N4CC[C@H](C(=O)NS(C)(=O)=O)C4)cc3F)cc2n1 (single isomer, unassigned) [Compound 41, (3S)-1-(4-{7-Cyclopropyl-5-[(4*R)-4-methyl-4,5,6,7-tetrahydro-thieno[3,2-c]pyridine-5-carbonyl]pyrazolo[1,5-a]pyrimidin-2-yl}-3-fluorophenyl)-N-methanesulfonylpyrrolidine-3-carboxamide] | 0.036 | 51.1
10 | C[C@@H]1c2ccsc2CCN1C(=O)c1cc(C2CC2)n2nc(-c3ccc(N4CC[C@@](C)(C(N)=O)C4)cc3F)cc2n1 (single isomer, unassigned) [Compound 44, (3*R)-1-(4-{7-Cyclopropyl-5-[(4*R)-4-methyl-4,5,6,7-tetrahydro-thieno[3,2-c]pyridine-5-carbonyl]pyrazolo[1,5-a]pyrimidin-2-yl}-3-fluorophenyl)-3-methylpyrrolidine-3-carboxamide] | 0.019 | 45.2
11 | C[C@@H]1c2ccsc2CCN1C(=O)c1cc(C2CC2)n2nc(-c3ccc(N4CC[C@](C)(C(N)=O)C4)cc3F)cc2n1 (single isomer, unassigned) [Compound 45, (3*S)-1-(4-{7-Cyclopropyl-5-[(4*R)-4-methyl-4,5,6,7-tetrahydro-thieno[3,2-c]pyridine-5-carbonyl]pyrazolo[1,5-a]pyrimidin-2-yl}-3-fluorophenyl)-3-methylpyrrolidine-3-carboxamide] | 0.02 | 31.4
12 | C[C@@H]1c2ccccc2CCN1C(=O)c1cc(C2CC2)n2nc(-c3ccc(N4CCC(O)(CO)C4)cc3F)cc2n1 (single isomer, unassigned) [Compound 103] | 0.019 | 35.8
13 | CO[C@H]1CN(c2ccc(-c3cc4nc(C(=O)N5CCc6ccccc6[C@H]5C)cc(C5CC5)n4n3)c(F)c2)C[C@@H]1O (stereo in doubt) [Compound 96, (7-cyclopropyl-2-(2-fluoro-4-((trans)-3-hydroxy-4-methoxypyrrolidin-1-yl)phenyl)pyrazolo[1,5-a]pyrimidin-5-yl)((R)-1-methyl-3,4-dihydroisoquinolin-2(1H)-yl)methanone] | 0.05 | 22.5
14 | C[C@@H]1c2ccccc2CCN1C(=O)c1cc(C2CC2)n2nc(-c3ccc(N4C[C@H](C)[C@@H](O)C4)cc3F)cc2n1 (stereo in doubt) [Compound 99, (7-cyclopropyl-2-(2-fluoro-4-((trans)-3-hydroxy-4-methylpyrrolidin-1-yl)phenyl)pyrazolo[1,5-a]pyrimidin-5-yl)((R)-1-methyl-3,4-dihydroisoquinolin-2(1H)-yl)methanone] | 0.092 | > 100
15 | C[C@@H]1c2ccccc2CCN1C(=O)c1cc(C2CC2)n2nc(-c3ccc(N4CCC(C#N)C4)cc3F)cc2n1 (stereo partly drawn) [Compound 1, 1-(4-{7-Cyclopropyl-5-[(1R)-1-methyl-1,2,3,4-tetrahydroisoquinoline-2-carbonyl]-pyrazolo[1,5-a]pyrimidin-2-yl}-3-fluorophenyl)pyrrolidine-3-carbonitrile] | 0.085 | > 100
16 | C[C@@H]1c2ccccc2CCN1C(=O)c1cc(C2CC2)n2nc(-c3ccc(N4CC[C@@H](c5nnn[nH]5)C4)cc3F)cc2n1 [Compound 2, (1R)-2-(7-Cyclopropyl-2-{2-fluoro-4-[(3R)-3-(1H-1,2,3,4-tetrazol-5-yl)pyrrolidin-1-yl]phenyl}pyrazolo[1,5-a]pyrimidine-5-carbonyl)-1-methyl-1,2,3,4-tetrahydroisoquinoline] | 0.056 | 38.7
17 | C[C@@H]1c2ccccc2CCN1C(=O)c1cc(C2CC2)n2nc(-c3ccc(N4CC[C@H](c5nnn[nH]5)C4)cc3F)cc2n1 [Compound 3, (1R)-2-(7-Cyclopropyl-2-{2-fluoro-4-[(3S)-3-(1H-1,2,3,4-tetrazol-5-yl)pyrrolidin-1-yl]phenyl}pyrazolo[1,5-a]pyrimidine-5-carbonyl)-1-methyl-1,2,3,4-tetrahydroisoquinoline] | 0.063 | 43
18 | C[C@@H]1c2ccccc2CCN1C(=O)c1cc(C2CC2)n2nc(-c3ccc(N4CC[C@H](c5noc(=O)[nH]5)C4)cc3F)cc2n1 [Compound 4, 3-[(3S)-1-(4-{7-Cyclopropyl-5-[(1R)-1-methyl-1,2,3,4-tetrahydroisoquinoline-2-carbonyl]pyrazolo[1,5-a]pyrimidin-2-yl}-3-fluorophenyl)pyrrolidin-3-yl]-4,5-dihydro-1,2,4-oxadiazol-5-one] | 0.049 | 23
19 | C[C@@H]1c2ccccc2CCN1C(=O)c1cc(C2CC2)n2nc(-c3ccc(N4CCC5(C4)CS(=O)(=O)C5)cc3F)cc2n1 [Compound 6] | 0.098 | > 100
20 | CC(=O)N[C@H]1CCN(c2ccc(-c3cc4nc(C(=O)N5CCc6ccccc6[C@H]5C)cc(C5CC5)n4n3)c(F)c2)C1 [Compound 8, N-[(3S)-1-(4-{7-Cyclopropyl-5-[(1R)-1-methyl-1,2,3,4-tetrahydroisoquinoline-2-carbonyl]pyrazolo[1,5-a]pyrimidin-2-yl}-3-fluorophenyl)pyrrolidin-3-yl]acetamide] | 0.041 | 51.5
21 | COC(=O)N[C@@H]1CCN(c2ccc(-c3cc4nc(C(=O)N5CCc6ccccc6[C@H]5C)cc(C5CC5)n4n3)c(F)c2)C1 [Compound 9, Methyl N-[(3R)-1-[4-{7-cyclopropyl-5-[(1R)-1-methyl-1,2,3,4-tetrahydroisoquinoline-2-carbonyl]pyrazolo[1,5-a]pyrimidin-2-yl}-3-fluorophenyl)pyrrolidin-3-yl]carbamate] | 0.108 | > 100
22 | C[C@@H]1c2ccccc2CCN1C(=O)c1cc(-c2ccc(Cl)cc2)n2nc(-c3ccc(N4CC[C@H](C(N)=O)C4)cc3F)cc2n1 [Compound 59, (3S)-1-{4-[7-(4-Chlorophenyl)-5-[(1R)-1-methyl-1,2,3,4-tetrahydroisoquinoline-2-carbonyl]pyrazolo[1,5-a]pyrimidin-2-yl]-3-fluorophenyl}pyrrolidine-3-carboxamide] | 0.047 | –
